These are literature values, as cited in patent US20060110359A1, “Cellular delivery of natriuretic peptides” (priority 2002, published 2006).

The structures appear in SMILES notation.

Data set [1] concerns brain edema. The following applies: for effect on brain edema: experimental brain hemorrhage in rats.
The subject of data set [2] is brain edema. The following applies: into rat lateral ventricle or intravenously.

As to `Nc1nc2c(nc(Br)n2[C@@H]2O[C@@H]3COP(=O)(O)O[C@H]3[C@H]2O)c(=O)[nH]1` [8-bromo-cGMP], in the data set on brain edema [1], the “effect on brain edema” value was “Neither mannitol nor 8-bromo-cGMP affected brain edema”.
On to `CC[C@H](C)[C@@H]1NC(=O)[C@H](CCCNC(=N)N)NC(=O)[C@H](CC(=O)O)NC(=O)[C@H](CCSC)NC(=O)[C@H](CCCNC(=N)N)NC(=O)CNC(=O)CNC(=O)[C@H](Cc2ccccc2)NC(=O)[C@@H](NC(=O)[C@H](CO)NC(=O)[C@H](CO)NC(=O)[C@H](CCCNC(=N)N)NC(=O)[C@H](CCCNC(=N)N)NC(=O)[C@H](CC(C)C)NC(=O)[C@@H](N)CO)CSSC[C@@H](C(=O)N[C@@H](CC(N)=O)C(=O)N[C@@H](CO)C(=O)N[C@@H](Cc2ccccc2)C(=O)N[C@@H](CCCNC(=N)N)C(=O)N[C@@H](Cc2ccc(O)cc2)C(=O)O)NC(=O)CNC(=O)[C@H](CC(C)C)NC(=O)CNC(=O)[C@H](CO)NC(=O)[C@H](CCC(N)=O)NC(=O)[C@H](C)NC(=O)CNC1=O` [ANP, atrial natriuretic peptide], for which, in the data set on brain edema [1] (given after a 4-hour delay, 24 hours after hemorrhage, rats), the “brain water and sodium” value is on record as “significantly reduced”. The “brain water and sodium accumulation” value in the data set on brain edema [2] is “inhibit brain water and sodium accumulation”.
As for `OC[C@@H](O)[C@@H](O)[C@H](O)[C@H](O)CO` [mannitol], the “effect on brain edema” value in the data set on brain edema [1] was “Neither mannitol nor 8-bromo-cGMP affected brain edema”.
